Target: T1, protein tyrosine phosphatase 1B (PTP1B) (Homo sapiens, UniProt P18031)
T1 construct: gene PTPN1; PTP1B1-321
T1 sequence (P18031 1-321): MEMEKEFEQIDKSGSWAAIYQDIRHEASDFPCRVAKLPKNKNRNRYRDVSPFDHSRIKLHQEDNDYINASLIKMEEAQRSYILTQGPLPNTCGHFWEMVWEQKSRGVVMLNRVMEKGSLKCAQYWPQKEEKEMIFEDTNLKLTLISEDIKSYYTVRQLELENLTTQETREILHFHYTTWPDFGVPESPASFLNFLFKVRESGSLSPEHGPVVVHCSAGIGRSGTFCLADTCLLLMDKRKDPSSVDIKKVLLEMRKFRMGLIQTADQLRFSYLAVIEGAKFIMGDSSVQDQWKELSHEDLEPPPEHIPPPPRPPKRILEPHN
Assay: pNPP hydrolysis assay with recombinant human PTP1B, absorbance at […] nm
Assay type: biochemical

In the case of `Oc1cc(Cc2cc(O)c(O)c(Br)c2Cc2cc(O)c(O)c(Br)c2Br)c(Br)c(Br)c1O` [CYC31, 3-bromo-4,5-Bis(2,3-dibromo-4,5-dihydroxybenzyl)-1,2-benzenediol], the “pNPP hydrolysis assay with recombinant human PTP1B, absorbance at 405 nm” value is reported as “As shown in Figure 1B, PTP1B was significantly inactivated by CYC31 in a concentration-dependent manner”.
